Assay results taken from patent US7741344B2, “Process for preparing purified S-BEL and R-BEL and compositions thereof” (Washington University in St. Louis, priority 2002, dated 2010).
pIC50: −log10 of the molar value. Like-named read-outs stand apart in the source and are kept apart here.

Experiments:
recombinant human iPLA2γ = target: T1, recombinant human iPLA2γ (Homo sapiens, UniProt Q9NP80); test: Assay of iPLA2γ inhibition by BEL (Sf9 cell membranes, radiolabeled phospholipid substrate); assay type: biochemical
T1 construct: Recombinant full-length iPLA2γ was expressed in Sf9 cells; made in house; host or cells: Sf9 cells (washed membrane fraction, not purified)
T1 sequence (Q9NP80 1-782): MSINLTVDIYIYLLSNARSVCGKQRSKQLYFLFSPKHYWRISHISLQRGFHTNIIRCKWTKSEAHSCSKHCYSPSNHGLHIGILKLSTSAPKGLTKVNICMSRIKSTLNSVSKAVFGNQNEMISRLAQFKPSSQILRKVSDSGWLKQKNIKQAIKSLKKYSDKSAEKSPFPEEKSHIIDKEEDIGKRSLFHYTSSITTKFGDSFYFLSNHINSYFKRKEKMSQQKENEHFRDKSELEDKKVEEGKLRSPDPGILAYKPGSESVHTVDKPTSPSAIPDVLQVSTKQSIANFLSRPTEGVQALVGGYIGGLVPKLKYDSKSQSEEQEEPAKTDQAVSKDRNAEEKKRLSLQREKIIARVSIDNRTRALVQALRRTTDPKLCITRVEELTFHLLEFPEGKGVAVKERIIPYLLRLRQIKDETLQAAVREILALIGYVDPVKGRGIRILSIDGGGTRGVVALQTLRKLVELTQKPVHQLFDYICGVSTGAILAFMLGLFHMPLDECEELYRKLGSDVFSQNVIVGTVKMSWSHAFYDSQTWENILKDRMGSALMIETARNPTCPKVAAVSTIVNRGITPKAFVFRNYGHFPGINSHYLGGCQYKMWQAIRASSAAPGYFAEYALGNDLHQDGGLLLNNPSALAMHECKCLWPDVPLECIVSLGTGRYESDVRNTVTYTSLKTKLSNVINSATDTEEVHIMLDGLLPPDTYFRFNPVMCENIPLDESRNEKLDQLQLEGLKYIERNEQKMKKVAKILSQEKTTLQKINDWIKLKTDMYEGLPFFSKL
Description: Recombinant iPLA2 Enzymes—Recombinant iPLA2β was expressed and purified from Sf9 cells as previously described (35). Recombinant full-length iPLA2γ was expressed in Sf9 cells and the membrane fraction was washed and isolated as previously described (24).
Assay of iPLA2β and iPLA2γ Inhibition by BEL—Purified recombinant iPLA2β or Sf9 cell membranes containing recombinant iPLA2γ were incubated with (R) BEL, (S) BEL, racemic BEL, or ethanol vehicle for 3 mm at 22° C. in the presence of 100 mM Tris-HCl (pH 7.0) and 4 mM EGTA (for iPLA2β) or 100 mM Tris-acetate (pH 8.0) and 4 mM EGTA (for iPLA2γ). The concentration of BEL used for each test ranged from 0 to 16 μM. L-α-1-palmitoyl-2-[1^14C]-arachidonyl-phosphatidylcholine (5 μM final concentration) or L-α-1-palmitoyl-2-[1-^14C]-oleoyl-phosphatidylcholine (5 μM final concentration) in ethanol was then added to each sample and incubated at 37° C. for 2 min. Reactions were terminated by extraction of radiolabeled products into butanol, and reactants and products were separated by thin layer chromatography using Whatman LK6D 60 Å Silica Gel plates with petroleum ether/ethyl ether/acetic acid (70:30:1) as the mobile phase. Regions corresponding to the migration of a fatty acid standard visualized by iodine staining were scraped into vials and radioactivity was quantified by scintillation spectrometry.
Panel A—Purified recombinant iPLA2β (1 μg/ml) in 100 mM Tris-HCl, pH 7.3 containing 1 mM EGTA was preincubated at 22° C. for 3 mm in the presence of the indicated concentrations of (R)-, (S)-, or rac-BEL or ethanol vehicle alone (1% final concentration). Radiolabeled substrate (L-α-1-palmitoyl-2-[1-^14C]-arachidonyl-phosphatidylcholine, 5 μM final concentration) was then added to each reaction and incubated at 37° C. for 2 min. Reactions were terminated by extraction of remaining substrate and products into butanol, separation by TLC, and quantification of released radiolabeled fatty acid by scintillation spectrometry as described in Experimental Procedures. Results are representative of four separate tests. Panel B—Washed Sf9 cell membranes containing recombinant human iPLA2γ were preincubated for 3 min with the indicated concentrations of (R)-, (S)-, or racemic BEL or ethanol vehicle alone (1% final concentration) in 100 mM Tris-acetate, pH 8.0 containing 1 mM EGTA at 22° C. Radiolabeled substrate (L-α-1-palmitoyl-2-[1-^14C]-oleoyl-phosphatidylcholine, 5 μM final concentration) was then added to each reaction and incubated at 37° C. for 2 min. Reactions were terminated by extraction of remaining substrate and products into butanol, separation by TLC, and quantification of released radiolabeled fatty acid by scintillation spectrometry as described in “Experimental Procedures”. Results are representative of four separate tests.

[1] = test system: MAPK (ERK2) phosphorylation; test: AVP-induced MAPK phosphorylation in A-10 cells (Western); assay type: cell-based, rat; settings: 5 μM, 15 min, 1 μM AVP; FIG. 9
A-10 smooth muscle cells = settings: prior studies (10, 29), cited from earlier work
[2] = test system: iPLA2 vs. cPLA2 and SPLA2 family members; settings: (31, 32); cited from earlier work
[3] = test system: magnesium-dependent cytozoic phosphatidate phosphohydrolase, PAP-1; settings: 25 μM BEL; (33, 34); cited from earlier work
[4] = test system: cytosolic PAP-1 in McA-RH7777 rat hepatoma cells; settings: 100 μM BEL; (17); cited from earlier work
A-10 cells = settings: cited from earlier work

selectivity for inhibition of iPLA2γ (recombinant human iPLA2γ)	inhibition of iPLA2γ, fold more potent than (S)-BEL (recombinant human iPLA2γ; 3 min preincubation, FIG. 4B)	pIC50 (recombinant human iPLA2γ; read-out: IC50 for iPLA2γ (range stated jointly for iPLA2β and iPLA2γ))	SMILES	selectivity for iPLA2γ than iPLA2β (recombinant human iPLA2γ; in words)	AVP-induced phosphorylation of ERK2 [1]	inhibitory potency on iPLA2γ relative to the enantiomers (recombinant human iPLA2γ; FIG. 4B)	inhibition of AVP-inducible arachidonic acid release (A-10 smooth muscle cells; 2 μM BEL pretreatment)	inhibition of AVP-inducible arachidonic acid release (A-10 smooth muscle cells; 5 μM BEL pretreatment)	selectivity iPLA2 vs. cPLA2 and SPLA2 family members [2]	inhibition of PAP-1 [3]	inhibition of cytosolic PAP-1 activity in McA-RH7777 cells [4]	release of IP2 or IP3 in A-10 cells (A-10 cells)
10 fold	approximately 10 fold	–	O=C1O/C(=C/Br)CC[C@@H]1c1cccc2ccccc12 [(R)-BEL, (R)(E)-6-(bromomethylene)-3-(1-naphthalenyl)-2H-tetrahydropyran-2-one]	approximately an order of magnitude more selective	not effected	–	–	–	–	–	–	–
–	–	5.52 to 6.30	O=C1OC(=CBr)CCC1c1cccc2ccccc12 (racemic) [rac-BEL, Racemic (E)-6-(bromomethylene)-3-(1-naphthalenyl)-2H-tetrahydropyran-2-one]	–	not effected	intermediate of that of (R)-BEL and (S)-BEL	≈ 60%	~80%	1000 fold	partially inhibit	not significantly inhibited	does not inhibit
